Here are results for one substance from US20210108199A1, “Treatment for aggressive cancers by targeting C9ORF72” (The Trustees of Columbia University in the City of New York, priority 2017, published 2021).

Common to all, as to assay type: cell-based
One data set has as its system cortical neurons. As to the kind of experiment: C9 knockdown in neurons and live imaging of mitochondria. Conditions: rat-derived cortical neurons. As to the method: Cortices from E19 embryonic brains from pregnant Sprague-Dawley female rats were dissected in ice-cold HBSS (ThermoFisher™ Scientific #24020117), supplemented with 10 mM HEPES (pH 7.4), 10 mM MgCl2, 1% P/S and 0.5 mM L-glutamine. The hippocampal tissue was discarded and only the cortical tissue was trypsinized for 15 minutes at 37° C. in a water bath and resuspended in DMEM with 10% FBS and 1% P/S. The dissociated neurons were subjected to centrifugation to remove debris, counted and plated onto MatTek™ 35 mm or 50 mm glass bottom dishes pre-coated with Poly-L-Lysine (1 mg/mL) and Laminin, at a density of 100,000 for live imaging experiments. After about 12-15 hours, the medium was changed to Neurobasal medium supplemented with 0.5 mM L-Glutamine, B-27 serum free supplement (Gibco™) and 1% P/S. Media were changed every 2-3 days.
Day 7 cortical neurons were transfected with 80 nM C9orf72 siRNA and 40 ng CMV-GFP vector using a magnetofectamine kit (OZ Biosciences™ #MTX0750). […]

In the next data set the test system is caspase-3, PARP1. As to the kind of experiment: Western blot of caspase-3 and PARP1 cleavage. The note with it: U87 cells. As to the method:
For Western blot analysis, cells were lysed with lysis buffer (20 mM sodium phosphate (pH 7.0), 250 mM NaCl, 30 mM sodium pyrophosphate, 0.1% Nonidet™ P-40, 5 mM EDTA, 10 mM NaF, 0.1 mM Na3VO4, and 1 mM PMSF) supplemented with complete protease inhibitors (Roche™) and homogenized by passage through a 28 gauge needle. Protein concentration was measured with a Bio-Rad™ protein assay dye reagent and results were read using a spectrophotometer (BiophotometerPlus™ by Eppendorf™). Protein extracts were resolved by SDS PAGE on gradient (Thermo Fisher™) or 12% gels. Proteins were then electrotransferred at 350 mA for 80 minutes onto a PVDF membrane (Immobilon-P PVDF). Membranes were blocked with PBST with 5% milk and 1% BSA for 30 minutes. Quantitation of blots was performed Image Studio Lite software (LI-COR Biosciences™).
To check known markers of apoptosis, including caspase-3 cleavage and PARP1 cleavage, U87 cells were treated with doxorubicin as a positive control for apoptotic markers. […] FIG. 17 is a set of WB visualizing the levels of cleaved and un-cleaved caspace-3, and cleaved and un-cleaved PARP1 in cells treated with control (siCtrl) and C9 (siC9; SEQ ID NO:631) siRNA, and U87 cells treated.
On the technique in general: Immunoblotting shows a protein as a band on a membrane.

Data set [1] concerns U87 cells. Nature of the data set: β-Galactosidase staining (senescence). As to the method: β-Galactosidase staining was performed using a Senescence™ β-Galactosidase Staining Kit (Cell Signaling™, #9860) and used according to manufacturer's instructions.
To confirm that cells undergo non-apoptotic death, apoptosis was blocked with a broad caspase inhibitor Z-VAD-FMK upon C9 KD. […] Additionally, the apoptosis inducer, staurosporine (STS), was used to asses Z-VAD-FMK efficacy. […] A beta galactosidase staining technique was used to asses senescence upon C9 KD. […] See FIG. 20, for which U87 cells were treated with control (siCtrl) and C9 (siC9; SEQ ID NO:631) siRNA and then subjected to β-Galactosidase Staining.

Data set [2] has as its system U87 cells. Nature of the data set: Mitochondrial imaging (MitoTracker) and MiNA quantitation. As to the method: Mitchondria imaging in U87 cell was performed with MitoTracker™ Red CMXRos (ThermoFisher™, M7512) according to the manufacturer's protocol. Cells then were imaged as described herein.
Quantitation was performed using a publicly available macro MiNA for ImageJ™ as described.
The vacuoles were studied to investigate whether they are swollen mitochondria, because several reports observed vacuolated mitochondria in ALS patients and mice models that resemble the phenotype seen here. A fluorescent mitochondrial dye was used to visualize mitochondria upon C9 KD. […] See FIG. 5A and FIG. 5B, which show an IF image of U87 cells treated as in Example 1 and stained with MitoTracker (red) and nuclei stained with DAPI (blue).
To obtain the data seen in FIG. 6, the stained mitochondria from FIG. 5 were IF stained and analyzed using MiNA software for ImageJ™.

Another data set concerns p53 target genes. Nature of the data set: qRT-PCR of p53 target genes. Conditions: U87 cells. As to the method: For most RNA experiments, RNA was isolated from cells using the Qiagen™ RNeasy minikit. Complementary DNA was generated using the Qiagen™ Quantitect™ reverse transcription kit with 0.5 μg of input RNA as measured with a NanoDrop spectrophotometer (Thermo Scientific™). Real-time PCR was carried out on an ABI StepOne Plus™ machine using power SYBR Green dye (Thermo Scientific™). Transcript levels were assayed in triplicate and normalized to RPL32 and HPS90 mRNAs. Relative changes in cDNA levels were calculated using the comparative Ct method (ΔΔCT method). All RT-qPCR primers were designed with Primer3Plus™ or retrieved from Primerbank™. Primer sequences are listed here, including in Table 3. All primers were purchased from Life Technologies™. H. Generation of p53 Knock Out U87 Cell Lines by CRISPR
This also is consistent with p53 activation. FIG. 27 presents RT-qPCR analysis of C9ORF72, CDKN1A (p21), NOXA, PUMA, GLUT1, MDM2 and GLUT3 mRNA levels in U87 cells treated with control (siCtrl) and C9 (siC9; SEQ ID NO:631) siRNA. These studies were performed using three biological replicates (n=3); error bars represent S.E.M. Statistical significance was assessed by an unpaired t-test: NS P>0.05, *P≤0.05, **P≤0.01, ***P≤0.001 ****P≤0.0001.
On the technique in general: Quantitative PCR measures a nucleic acid by following its amplification.

Regarding “siC9: siRNA targeting C9 mRNA: UUAAUGAAACAAUAAUCACUC (SEQ ID NO:631; sense) and GUGAUUAUUGUUUCAUUAAUC (SEQ ID NO:632; antisense) (listed as RNA, chemistry not given here)”, the mitochondria motility entry in the data set with cortical neurons is “significantly reduced”. Also, the mitochondria accumulation result with cortical neurons (dendrites) is given as “induced mitochondria accumulation in the dendrites”. Moreover, in the data set on caspase-3, PARP1, the PARP1 cleavage result is “not observed”, the PARP1 protein entry was “no PARP1 protein observed” and the “caspase 3 cleavage” value is given as “did not lead to caspase 3 cleavage”. In the data set on U87 cells [1], the “nucleus and cell size” value is “increase in both nucleus and cell size”; the “β-galactosidase staining (senescence)” value was “did not stain with the assay”. Further, in the data set with U87 cells [2] (MiNA), the “total amount of individual and networked mitochondria staining” value is reported as “increased”. For the same substance, in the data set on U87 cells [2] (MitoTracker), the “mitochondrial dye staining of vacuoles” value is on record as “did not stain red”. In addition, the mitochondrial network organization entry in the data set with U87 cells [2] (vs control) is reported as “significant mitochondrial network disorganization”. In addition, in the data set with p53 target genes, the “mRNA levels of p53 target genes (p21, MDM2, NOXA, PUMA)” value is recorded as “elevated”; the “mRNA levels of repression targets (GLUT1 and GLUT3)” value was “lower mRNA levels”.
